Reference: ChEMBL document CHEMBL1671627, “Increasing trends in antimicrobial resistance among clinically important anaerobes and Bacteroides fragilis isolates causing nosocomial infections: emerging resistance to carbapenems” (2008)
≈ marks a conversion by molar mass, not a printed value.

What was measured:
Bacteroides fragilis [1] = assay: Antibacterial activity against Bacteroides fragilis assessed as susceptible isolates by CLSI agar dilution method; format: functional
Bacteroides fragilis [2] = assay: Antibacterial activity against Bacteroides fragilis assessed as resistant isolates by CLSI agar dilution method; format: functional
[3] = system: Bacteroides thetaiotaomicron; assay: Antibacterial activity against beta-lactamase producing Bacteroides thetaiotaomicron assessed as susceptible isolates by CLSI agar dilution method; format: functional
[4] = system: Bacteroides thetaiotaomicron; assay: Antibacterial activity against beta-lactamase producing Bacteroides thetaiotaomicron assessed as resistant isolates by CLSI agar dilution method; format: functional
Phocaeicola vulgatus [5] = assay: Antibacterial activity against beta-lactamase producing Bacteroides vulgatus by CLSI agar dilution method; format: functional
Phocaeicola vulgatus [6] = assay: Antibacterial activity against beta-lactamase producing Bacteroides vulgatus assessed as susceptible isolates by CLSI agar dilution method; format: functional
Phocaeicola vulgatus [7] = assay: Antibacterial activity against beta-lactamase producing Bacteroides vulgatus assessed as resistant isolates by CLSI agar dilution method; format: functional
Bacteroides uniformis [8] = assay: Antibacterial activity against beta-lactamase producing Bacteroides uniformis by CLSI agar dilution method; format: functional
Bacteroides uniformis [9] = assay: Antibacterial activity against beta-lactamase producing Bacteroides uniformis assessed as susceptible isolates by CLSI agar dilution method; format: functional
Bacteroides uniformis [10] = assay: Antibacterial activity against beta-lactamase producing Bacteroides uniformis assessed as resistant isolates by CLSI agar dilution method; format: functional
Bacteroides caccae [11] = assay: Antibacterial activity against beta-lactamase producing Bacteroides caccae by CLSI agar dilution method; format: functional
Bacteroides caccae [12] = assay: Antibacterial activity against beta-lactamase producing Bacteroides caccae assessed as susceptible isolates by CLSI agar dilution method; format: functional
Bacteroides caccae [13] = assay: Antibacterial activity against beta-lactamase producing Bacteroides caccae assessed as resistant isolates by CLSI agar dilution method; format: functional
Fusobacterium varium [14] = assay: Antibacterial activity against Fusobacterium varium by CLSI agar dilution method; format: functional
Fusobacterium nucleatum [15] = assay: Antibacterial activity against Fusobacterium nucleatum by CLSI agar dilution method; format: functional
Fusobacterium mortiferum [16] = assay: Antibacterial activity against Fusobacterium mortiferum by CLSI agar dilution method; format: functional
[17] = system: Fusobacterium necrophorum; assay: Antibacterial activity against Fusobacterium necrophorum by CLSI agar dilution method; format: functional
Fusobacterium varium [18] = assay: Antibacterial activity against Fusobacterium varium assessed as susceptible isolates by CLSI agar dilution method; format: functional
Fusobacterium nucleatum [19] = assay: Antibacterial activity against Fusobacterium nucleatum assessed as susceptible isolates by CLSI agar dilution method; format: functional
Fusobacterium mortiferum [20] = assay: Antibacterial activity against Fusobacterium mortiferum assessed as susceptible isolates by CLSI agar dilution method; format: functional
[21] = system: Fusobacterium necrophorum; assay: Antibacterial activity against Fusobacterium necrophorum assessed as susceptible isolates by CLSI agar dilution method; format: functional
Fusobacterium varium [22] = assay: Antibacterial activity against Fusobacterium varium assessed as resistant isolates by CLSI agar dilution method; format: functional
Fusobacterium nucleatum [23] = assay: Antibacterial activity against Fusobacterium nucleatum assessed as resistant isolates by CLSI agar dilution method; format: functional
Fusobacterium mortiferum [24] = assay: Antibacterial activity against Fusobacterium mortiferum assessed as resistant isolates by CLSI agar dilution method; format: functional
[25] = system: Fusobacterium necrophorum; assay: Antibacterial activity against Fusobacterium necrophorum assessed as resistant isolates by CLSI agar dilution method; format: functional
Prevotella buccae [26] = assay: Antibacterial activity against Prevotella buccae by CLSI agar dilution method; format: functional; settings: Segatella buccae
Prevotella bivia [27] = assay: Antibacterial activity against Prevotella bivia by CLSI agar dilution method; format: functional
Prevotella intermedia [28] = assay: Antibacterial activity against Prevotella intermedia by CLSI agar dilution method; format: functional
[29] = system: Prevotella melaninogenica; assay: Antibacterial activity against Prevotella melaninogenica by CLSI agar dilution method; format: functional
Prevotella buccae [30] = assay: Antibacterial activity against Prevotella buccae assessed as susceptible isolates by CLSI agar dilution method; format: functional, Segatella buccae
Prevotella bivia [31] = assay: Antibacterial activity against Prevotella bivia assessed as susceptible isolates by CLSI agar dilution method; format: functional
Prevotella intermedia [32] = assay: Antibacterial activity against Prevotella intermedia assessed as susceptible isolates by CLSI agar dilution method; format: functional
[33] = system: Prevotella melaninogenica; assay: Antibacterial activity against Prevotella melaninogenica assessed as susceptible isolates by CLSI agar dilution method; format: functional
Prevotella buccae [34] = assay: Antibacterial activity against Prevotella buccae assessed as resistant isolates by CLSI agar dilution method; format: functional, Segatella buccae
Prevotella bivia [35] = assay: Antibacterial activity against Prevotella bivia assessed as resistant isolates by CLSI agar dilution method; format: functional
Prevotella intermedia [36] = assay: Antibacterial activity against Prevotella intermedia assessed as resistant isolates by CLSI agar dilution method; format: functional
[37] = system: Prevotella melaninogenica; assay: Antibacterial activity against Prevotella melaninogenica assessed as resistant isolates by CLSI agar dilution method; format: functional
Veillonella parvula = assay: Antibacterial activity against Veillonella parvula by CLSI agar dilution method; format: functional
Clostridium perfringens = assay: microbe, parasite or virus in culture; format: functional
[38] = system: Clostridium paraputrificum; assay: Antibacterial activity against beta-lactamase producing Clostridium paraputrificum by CLSI agar dilution method; format: functional
Clostridium septicum [39] = assay: Antibacterial activity against beta-lactamase producing Clostridium septicum by CLSI agar dilution method; format: functional
Clostridium tertium [40] = assay: Antibacterial activity against beta-lactamase producing Clostridium tertium by CLSI agar dilution method; format: functional
[41] = system: Clostridium paraputrificum; assay: Antibacterial activity against beta-lactamase producing Clostridium paraputrificum assessed as susceptible isolates by CLSI agar dilution method; format: functional
Clostridium septicum [42] = assay: Antibacterial activity against beta-lactamase producing Clostridium septicum assessed as susceptible isolates by CLSI agar dilution method; format: functional
Clostridium tertium [43] = assay: Antibacterial activity against beta-lactamase producing Clostridium tertium assessed as susceptible isolates by CLSI agar dilution method; format: functional
Bacteroides fragilis [44] = assay: Antibacterial activity against Bacteroides fragilis by CLSI agar dilution method; format: functional
[45] = system: Bacteroides thetaiotaomicron; assay: Antibacterial activity against beta-lactamase producing Bacteroides thetaiotaomicron by CLSI agar dilution method; format: functional
[46] = system: Clostridium paraputrificum; assay: Antibacterial activity against beta-lactamase producing Clostridium paraputrificum assessed as resistant isolates by CLSI agar dilution method; format: functional
Clostridium septicum [47] = assay: Antibacterial activity against beta-lactamase producing Clostridium septicum assessed as resistant isolates by CLSI agar dilution method; format: functional
Clostridium tertium [48] = assay: Antibacterial activity against beta-lactamase producing Clostridium tertium assessed as resistant isolates by CLSI agar dilution method; format: functional
[49] = system: Peptostreptococcus anaerobius; assay: Antibacterial activity against beta-lactamase producing Peptostreptococcus anaerobius by CLSI agar dilution method; format: functional
[50] = system: Peptostreptococcus anaerobius; assay: Antibacterial activity against beta-lactamase producing Peptostreptococcus anaerobius assessed as susceptible isolates by CLSI agar dilution method; format: functional
[51] = system: Peptostreptococcus anaerobius; assay: Antibacterial activity against beta-lactamase producing Peptostreptococcus anaerobius assessed as resistant isolates by CLSI agar dilution method; format: functional
Parvimonas micra [52] = assay: Antibacterial activity against beta-lactamase producing Micromonas micros by CLSI agar dilution method; format: functional
Parvimonas micra [53] = assay: Antibacterial activity against beta-lactamase producing Micromonas micros assessed as susceptible isolates by CLSI agar dilution method; format: functional
Parvimonas micra [54] = assay: Antibacterial activity against beta-lactamase producing Micromonas micros assessed as resistant isolates by CLSI agar dilution method; format: functional
[55] = system: Peptoniphilus asaccharolyticus; assay: Antibacterial activity against beta-lactamase producing Peptoniphilus asaccharolyticus by CLSI agar dilution method; format: functional
[56] = system: Peptoniphilus asaccharolyticus; assay: Antibacterial activity against beta-lactamase producing Peptoniphilus asaccharolyticus assessed as susceptible isolates by CLSI agar dilution method; format: functional
[57] = system: Peptoniphilus asaccharolyticus; assay: Antibacterial activity against beta-lactamase producing Peptoniphilus asaccharolyticus assessed as resistant isolates by CLSI agar dilution method; format: functional
Finegoldia magna [58] = assay: Antibacterial activity against beta-lactamase producing Finegoldia magna by CLSI agar dilution method; format: functional
Finegoldia magna [59] = assay: Antibacterial activity against beta-lactamase producing Finegoldia magna assessed as susceptible isolates by CLSI agar dilution method; format: functional
Finegoldia magna [60] = assay: Antibacterial activity against beta-lactamase producing Finegoldia magna assessed as resistant isolates by CLSI agar dilution method; format: functional

Work on `O=C(N[C@H](CO)[C@H](O)c1ccc([N+](=O)[O-])cc1)C(Cl)Cl` [CHLORAMPHENICOL] yielded an Activity (Bacteroides fragilis [1]) of 97%, an Activity (Bacteroides fragilis [2]) of 3% and an Activity [3] of 97%. The Activity [4] was 0%, the MIC50 (Phocaeicola vulgatus [5]) was 4 µg/mL (≈ 12.4 µM) and the MIC90 (Phocaeicola vulgatus [5]) was 8 µg/mL (≈ 24.8 µM). The Activity (Phocaeicola vulgatus [6]) was 96%, the Activity (Phocaeicola vulgatus [7]) was 4% and the MIC50 (Bacteroides uniformis [8]) was 4 µg/mL (≈ 12.4 µM). For the same compound, the MIC90 (Bacteroides uniformis [8]) was 8 µg/mL (≈ 24.8 µM), the Activity (Bacteroides uniformis [9]) was 96% and the Activity (Bacteroides uniformis [10]) was 4%. For the same compound, the MIC50 (Bacteroides caccae [11]) was 4 µg/mL (≈ 12.4 µM), the MIC90 (Bacteroides caccae [11]) was 8 µg/mL (≈ 24.8 µM) and the Activity (Bacteroides caccae [12]) was 96%. For the same compound, the Activity (Bacteroides caccae [13]) was 4%, the MIC50 (Fusobacterium varium [14]) was 2 µg/mL (≈ 6.19 µM) and the MIC90 (Fusobacterium varium [14]) was 2 µg/mL (≈ 6.19 µM). For the same compound, the MIC50 (Fusobacterium nucleatum [15]) was 2 µg/mL (≈ 6.19 µM), the MIC90 (Fusobacterium nucleatum [15]) was 2 µg/mL (≈ 6.19 µM) and the MIC50 (Fusobacterium mortiferum [16]) was 2 µg/mL (≈ 6.19 µM). For the same compound, the MIC90 (Fusobacterium mortiferum [16]) was 2 µg/mL (≈ 6.19 µM), the MIC50 [17] was 2 µg/mL (≈ 6.19 µM) and the MIC90 [17] was 2 µg/mL (≈ 6.19 µM). The Activity (Fusobacterium varium [18]) was 96%, the Activity (Fusobacterium nucleatum [19]) was 96% and the Activity (Fusobacterium mortiferum [20]) was 96%. The Activity [21] was 96%, the Activity (Fusobacterium varium [22]) was 4% and the Activity (Fusobacterium nucleatum [23]) was 4%. It also gave an Activity (Fusobacterium mortiferum [24]) of 4%, an Activity [25] of 4% and an MIC50 (Prevotella buccae [26]) of 4 µg/mL (≈ 12.4 µM). The MIC90 (Prevotella buccae [26]) was 8 µg/mL (≈ 24.8 µM), the MIC50 (Prevotella bivia [27]) was 4 µg/mL (≈ 12.4 µM) and the MIC90 (Prevotella bivia [27]) was 8 µg/mL (≈ 24.8 µM). For the same compound, the MIC50 (Prevotella intermedia [28]) was 4 µg/mL (≈ 12.4 µM), the MIC90 (Prevotella intermedia [28]) was 8 µg/mL (≈ 24.8 µM) and the MIC50 [29] was 4 µg/mL (≈ 12.4 µM). It also gave an MIC90 [29] of 8 µg/mL (≈ 24.8 µM), an Activity (Prevotella buccae [30]) of 100% and an Activity (Prevotella bivia [31]) of 100%. It also gave an Activity (Prevotella intermedia [32]) of 100%, an Activity [33] of 100% and an Activity (Prevotella buccae [34]) of 0%. For the same compound, the Activity (Prevotella bivia [35]) was 0%, the Activity (Prevotella intermedia [36]) was 0% and the Activity [37] was 0%. The MIC (Veillonella parvula) was 1 µg/mL (≈ 3.09 µM), the MIC50 (Clostridium perfringens) was 4 µg/mL (≈ 12.4 µM) and the MIC90 (Clostridium perfringens) was 8 µg/mL (≈ 24.8 µM). The MIC50 [38] was 4 µg/mL (≈ 12.4 µM), the MIC90 [38] was 8 µg/mL (≈ 24.8 µM) and the MIC50 (Clostridium septicum [39]) was 4 µg/mL (≈ 12.4 µM). It also gave an MIC90 (Clostridium septicum [39]) of 8 µg/mL (≈ 24.8 µM), an MIC50 (Clostridium tertium [40]) of 4 µg/mL (≈ 12.4 µM) and an MIC90 (Clostridium tertium [40]) of 8 µg/mL (≈ 24.8 µM). It also gave an Activity [41] of 89%, an Activity (Clostridium septicum [42]) of 89% and an Activity (Clostridium tertium [43]) of 89%. It also gave an MIC50 (Bacteroides fragilis [44]) of 4 µg/mL (≈ 12.4 µM), an MIC90 (Bacteroides fragilis [44]) of 8 µg/mL (≈ 24.8 µM) and an MIC [45] of 4 µg/mL (≈ 12.4 µM). For the same compound, the MIC50 [45] was 4 µg/mL (≈ 12.4 µM), the MIC90 [45] was 8 µg/mL (≈ 24.8 µM) and the Activity [46] was 0%. It also gave an Activity (Clostridium septicum [47]) of 0%, an Activity (Clostridium tertium [48]) of 0% and an MIC [49] of 1 µg/mL (≈ 3.09 µM). The MIC50 [49] was 1 µg/mL (≈ 3.09 µM), the MIC90 [49] was 4 µg/mL (≈ 12.4 µM) and the Activity [50] was 94%. For the same compound, the Activity [51] was 6%, the MIC (Parvimonas micra [52]) was 1 µg/mL (≈ 3.09 µM) and the MIC50 (Parvimonas micra [52]) was 1 µg/mL (≈ 3.09 µM). It also gave an MIC90 (Parvimonas micra [52]) of 4 µg/mL (≈ 12.4 µM), an Activity (Parvimonas micra [53]) of 94% and an Activity (Parvimonas micra [54]) of 6%. The MIC [55] was 1 µg/mL (≈ 3.09 µM), the MIC50 [55] was 1 µg/mL (≈ 3.09 µM) and the MIC90 [55] was 4 µg/mL (≈ 12.4 µM). It also gave an Activity [56] of 94%, an Activity [57] of 6% and an MIC (Finegoldia magna [58]) of 1 µg/mL (≈ 3.09 µM). It also gave an MIC50 (Finegoldia magna [58]) of 1 µg/mL (≈ 3.09 µM), an MIC90 (Finegoldia magna [58]) of 4 µg/mL (≈ 12.4 µM) and an Activity (Finegoldia magna [59]) of 94%. The Activity (Finegoldia magna [60]) was 6%.
